Experimental data from patent US20100267561A1, “HERBICIDAL PYRIDAZINONE DERIVATIVES” (priority 2007, published 2010).

How the values were obtained:
Assay type in all cases: in vivo
[1] = test system: giant foxtail (Setaria faberi); experiment: Test A pre-/postemergence plant response
From the text: (§1) Seeds of species selected from barnyardgrass (Echinochloa crus-galli), large crabgrass (Digitaria sanguinalis), giant foxtail (Setaria faberi), blackgrass (Alopecurus myosuroides), canarygrass (Phalaris minor), morningglory (Ipomoea coccinea), pigweed (Amaranthus retroflexus), velvetleaf (Abutilon theophrasti), wheat (Triticum aestivum), and corn (Zea mays) were planted into a blend of loam soil and sand and treated preemergence with a directed soil spray using test chemicals formulated in a non-phytotoxic solvent mixture which included a surfactant. At the same time these species were also treated with postemergence applications of test chemicals formulated in the same manner.
(§2) Plants ranged in height from 2 to 10 cm and were in the one- to two-leaf stage for the postemergence treatment. Treated plants and untreated controls were maintained in a greenhouse for approximately 10 days, after which time all treated plants were compared to untreated controls and visually evaluated for injury. Plant response ratings, summarized in Table A, are based on a 0 to 100 scale where 0 is no effect and 100 is complete control. A dash (-) response means no test results.

[2] = test system: canarygrass (Phalaris minor); experiment: Test A pre-/postemergence plant response
From the text: as §1, §2

[3] = test system: large crabgrass (Digitaria sanguinalis); experiment: Test A pre-/postemergence plant response
From the text: as §1, §2

[4] = test system: barnyardgrass (Echinochloa crus-galli); experiment: Test A pre-/postemergence plant response
From the text: as §1, §2

corn (Zea mays) = experiment: Test A pre-/postemergence plant response
From the text: as §1, §2

[5] = test system: pigweed (Amaranthus retroflexus); experiment: Test A pre-/postemergence plant response
From the text: as §1, §2

[6] = test system: wheat (Triticum aestivum); experiment: Test A pre-/postemergence plant response
From the text: as §1, §2

[7] = test system: blackgrass (Alopecurus myosuroides); experiment: Test A pre-/postemergence plant response
From the text: as §1, §2

[8] = test system: morningglory (Ipomoea coccinea); experiment: Test A pre-/postemergence plant response
From the text: as §1, §2

[9] = test system: velvetleaf (Abutilon theophrasti); experiment: Test A pre-/postemergence plant response
From the text: as §1, §2

[10] = test system: umbrella sedge (Cyperus difformis); experiment: Test B flooded paddy test plant response
Outline: (§3)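 Paddy-water application to 2-leaf plants in pots held under 3 cm of flooding; response is a 0–100 visual control rating against controls after 13 to 15 days, and a dash marks a missing result.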

[11] = test system: barnyardgrass (Echinochloa crus-galli); experiment: Test B flooded paddy test plant response
Outline: as §3

[12] = test system: ducksalad (Heteranthera limosa); experiment: Test B flooded paddy test plant response
Outline: as §3

rice (Oryza sativa) = experiment: Test B flooded paddy test plant response
Outline: as §3

[13] = Postemergence, 31 g ai/ha, 0 to 100 scale (0 no effect, 100 complete control)
[14] = Postemergence, 125 g ai/ha, 0 to 100 scale, 0 no effect, 100 complete control
[15] = Preemergence, 31 g ai/ha, 0 to 100 scale, 0 is no effect, 100 is complete control
[16] = Preemergence, 125 g ai/ha, 0 to 100 scale (0 no effect, 100 complete control)
[17] = Flood (flooded paddy test), 62 g ai/ha, scale 0 to 100, 0 no effect, 100 complete control
[18] = Flood (flooded paddy test), 125 g ai/ha, scale 0 to 100, 0 no effect, 100 complete control
[19] = Flood (flooded paddy test), 250 g ai/ha, scale 0 to 100, 0 no effect, 100 complete control
[20] = Flood, 31 g ai/ha, scale 0 to 100
[21] = Postemergence, 500 g ai/ha, 0 to 100 scale, 0 no effect, 100 complete control
[22] = Preemergence, 500 g ai/ha, 0 to 100 scale (0 no effect, 100 complete control)

COc1nn(C)c(=O)c(-n2nc(-c3ccc(Br)cc3)cc2C)c1O [Compound 93]
20: Plant response rating, Crabgrass, Large [3, 15] | Plant response rating, Barnyardgrass [4, 15]
0: Plant response rating, Pigweed [5, 13] | Plant response rating, Pigweed [5, 14] | Plant response rating, Pigweed [5, 15] | Plant response rating, Pigweed [5, 16]
100: Plant response rating, Foxtail, Giant [1, 13] | Plant response rating, Foxtail, Giant [1, 14] | Plant response rating, Foxtail, Giant [1, 16] | Plant response rating, Canarygrass [2, 14] | Plant response rating, Crabgrass, Large [3, 13] | Plant response rating, Crabgrass, Large [3, 14] | Plant response rating, Crabgrass, Large [3, 16] | Plant response rating, Barnyardgrass [4, 13] | Plant response rating, Barnyardgrass [4, 14] | Plant response rating, Barnyardgrass [4, 16] | Plant response rating, Corn (corn (Zea mays); [14]) | Plant response rating, Blackgrass [7, 14] | Plant response rating, Blackgrass [7, 16]
70: Plant response rating, Wheat [6, 13]
30: Plant response rating, Corn (corn (Zea mays); [15]) | Plant response rating, Blackgrass [7, 15]
60: Plant response rating, Corn (corn (Zea mays); [16])
80: Plant response rating, Canarygrass [2, 13] | Plant response rating, Corn (corn (Zea mays); [13]) | Plant response rating, Wheat [6, 14] | Plant response rating, Wheat [6, 16]
50: Plant response rating, Wheat [6, 15]
10: Plant response rating, Canarygrass [2, 15]
90: Plant response rating, Foxtail, Giant [1, 15] | Plant response rating, Canarygrass [2, 16] | Plant response rating, Blackgrass [7, 13]

CCc1cc(-c2ccc(Cl)s2)nn1-c1c(O)cnn(C)c1=O [Compound 63]
30: Plant response rating, Corn (corn (Zea mays); [14])
60: Plant response rating, Foxtail, Giant [1, 14]
10: Plant response rating, Crabgrass, Large [3, 13] | Plant response rating, Crabgrass, Large [3, 14] | Plant response rating, Barnyardgrass [4, 16]
20: Plant response rating, Barnyardgrass [4, 14] | Plant response rating, Wheat [6, 14]
0: Plant response rating, Foxtail, Giant [1, 13] | Plant response rating, Foxtail, Giant [1, 15] | Plant response rating, Foxtail, Giant [1, 16] | Plant response rating, Morningglory [8, 13] | Plant response rating, Morningglory [8, 14] | Plant response rating, Morningglory [8, 15] | Plant response rating, Morningglory [8, 16] | Plant response rating, Crabgrass, Large [3, 15] | Plant response rating, Crabgrass, Large [3, 16] | Plant response rating, Barnyardgrass [4, 13] | Plant response rating, Barnyardgrass [4, 15] | Plant response rating, Corn (corn (Zea mays); [13]) | Plant response rating, Corn (corn (Zea mays); [15]) | Plant response rating, Corn (corn (Zea mays); [16]) | Plant response rating, Velvetleaf [9, 13] | Plant response rating, Velvetleaf [9, 14] | Plant response rating, Velvetleaf [9, 15] | Plant response rating, Velvetleaf [9, 16] | Plant response rating, Pigweed [5, 13] | Plant response rating, Pigweed [5, 14] | Plant response rating, Pigweed [5, 15] | Plant response rating, Pigweed [5, 16] | Plant response rating, Wheat [6, 13] | Plant response rating, Wheat [6, 15] | Plant response rating, Wheat [6, 16] | Plant response rating, Sedge, Umbrella [10, 17] | Plant response rating, Sedge, Umbrella [10, 18] | Plant response rating, Sedge, Umbrella [10, 19] | Plant response rating, Sedge, Umbrella [10, 20] | Plant response rating, Barnyardgrass [11, 17] | Plant response rating, Barnyardgrass [11, 18] | Plant response rating, Barnyardgrass [11, 19] | Plant response rating, Barnyardgrass [11, 20] | Plant response rating, Ducksalad [12, 17] | Plant response rating, Ducksalad [12, 18] | Plant response rating, Ducksalad [12, 19] | Plant response rating, Ducksalad [12, 20] | Plant response rating, Rice (rice (Oryza sativa); [17]) | Plant response rating, Rice (rice (Oryza sativa); [18]) | Plant response rating, Rice (rice (Oryza sativa); [19]) | Plant response rating, Rice (rice (Oryza sativa); [20])

COc1ccc(-c2cc(C)n(-c3c(O)cnn(C)c3=O)n2)cc1 [Compound 62]
0: Plant response rating, Foxtail, Giant [1, 16] | Plant response rating, Morningglory [8, 14] | Plant response rating, Morningglory [8, 21] | Plant response rating, Morningglory [8, 16] | Plant response rating, Morningglory [8, 22] | Plant response rating, Corn (corn (Zea mays); [14]) | Plant response rating, Corn (corn (Zea mays); [16]) | Plant response rating, Velvetleaf [9, 14] | Plant response rating, Velvetleaf [9, 21] | Plant response rating, Velvetleaf [9, 16] | Plant response rating, Velvetleaf [9, 22] | Plant response rating, Pigweed [5, 14] | Plant response rating, Pigweed [5, 21] | Plant response rating, Pigweed [5, 16] | Plant response rating, Pigweed [5, 22] | Plant response rating, Wheat [6, 14] | Plant response rating, Wheat [6, 16] | Plant response rating, Wheat [6, 22] | Plant response rating, Sedge, Umbrella [10, 17] | Plant response rating, Sedge, Umbrella [10, 18] | Plant response rating, Sedge, Umbrella [10, 19] | Plant response rating, Sedge, Umbrella [10, 20] | Plant response rating, Barnyardgrass [11, 17] | Plant response rating, Barnyardgrass [11, 18] | Plant response rating, Barnyardgrass [11, 19] | Plant response rating, Barnyardgrass [11, 20] | Plant response rating, Ducksalad [12, 17] | Plant response rating, Ducksalad [12, 18] | Plant response rating, Ducksalad [12, 19] | Plant response rating, Ducksalad [12, 20] | Plant response rating, Rice (rice (Oryza sativa); [17]) | Plant response rating, Rice (rice (Oryza sativa); [18]) | Plant response rating, Rice (rice (Oryza sativa); [19]) | Plant response rating, Rice (rice (Oryza sativa); [20])
100: Plant response rating, Barnyardgrass [4, 21]
40: Plant response rating, Foxtail, Giant [1, 14] | Plant response rating, Barnyardgrass [4, 14] | Plant response rating, Corn (corn (Zea mays); [21])
20: Plant response rating, Crabgrass, Large [3, 16] | Plant response rating, Corn (corn (Zea mays); [22]) | Plant response rating, Wheat [6, 21]
10: Plant response rating, Barnyardgrass [4, 16]
50: Plant response rating, Crabgrass, Large [3, 14]
60: Plant response rating, Foxtail, Giant [1, 21] | Plant response rating, Crabgrass, Large [3, 22]
30: Plant response rating, Foxtail, Giant [1, 22]
90: Plant response rating, Crabgrass, Large [3, 21] | Plant response rating, Barnyardgrass [4, 22]

Cc1nn(-c2ccc(Cl)cc2)cc1-c1c(O)cnn(C)c1=O [Compound 29]
0: Plant response rating, Foxtail, Giant [1, 14] | Plant response rating, Morningglory [8, 14] | Plant response rating, Morningglory [8, 21] | Plant response rating, Morningglory [8, 16] | Plant response rating, Morningglory [8, 22] | Plant response rating, Crabgrass, Large [3, 14] | Plant response rating, Crabgrass, Large [3, 16] | Plant response rating, Barnyardgrass [4, 16] | Plant response rating, Corn (corn (Zea mays); [14]) | Plant response rating, Corn (corn (Zea mays); [21]) | Plant response rating, Corn (corn (Zea mays); [16]) | Plant response rating, Corn (corn (Zea mays); [22]) | Plant response rating, Velvetleaf [9, 14] | Plant response rating, Velvetleaf [9, 21] | Plant response rating, Velvetleaf [9, 16] | Plant response rating, Velvetleaf [9, 22] | Plant response rating, Pigweed [5, 14] | Plant response rating, Pigweed [5, 21] | Plant response rating, Pigweed [5, 16] | Plant response rating, Pigweed [5, 22] | Plant response rating, Wheat [6, 14] | Plant response rating, Wheat [6, 16] | Plant response rating, Wheat [6, 22] | Plant response rating, Sedge, Umbrella [10, 17] | Plant response rating, Sedge, Umbrella [10, 18] | Plant response rating, Sedge, Umbrella [10, 19] | Plant response rating, Sedge, Umbrella [10, 20] | Plant response rating, Barnyardgrass [11, 17] | Plant response rating, Barnyardgrass [11, 18] | Plant response rating, Barnyardgrass [11, 19] | Plant response rating, Barnyardgrass [11, 20] | Plant response rating, Ducksalad [12, 17] | Plant response rating, Ducksalad [12, 18] | Plant response rating, Ducksalad [12, 19] | Plant response rating, Ducksalad [12, 20] | Plant response rating, Rice (rice (Oryza sativa); [17]) | Plant response rating, Rice (rice (Oryza sativa); [18]) | Plant response rating, Rice (rice (Oryza sativa); [19]) | Plant response rating, Rice (rice (Oryza sativa); [20])
70: Plant response rating, Barnyardgrass [4, 22]
80: Plant response rating, Foxtail, Giant [1, 21]
20: Plant response rating, Wheat [6, 21]
100: Plant response rating, Foxtail, Giant [1, 22]
50: Plant response rating, Crabgrass, Large [3, 21] | Plant response rating, Barnyardgrass [4, 21]
40: Plant response rating, Crabgrass, Large [3, 22]
60: Plant response rating, Foxtail, Giant [1, 16]
10: Plant response rating, Barnyardgrass [4, 14]
